In the supplement of paper PMC10949913:

Tests used:
Assay in all cases: area under concentration-response curve (viability) (AUC (a.u.)); higher = less active
Settings in all cases: 48 h
CU-ACC1 = system: CU-ACC1
Outline: (§1)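 Luminescence from CellTiter-Glo, read after 48 h, measured three adrenocortical carcinoma cell lines treated in 1,536-well plates with library compounds at 11 concentrations. Values were normalised per plate to vehicle and empty-well controls. The AC50 and area under the curve come from fitted concentration-response curves in inhibitory or non-responding classes only.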

CU-ACC2 = system: CU-ACC2
Outline: as §1

NCI-H295R = system: NCI-H295R
Outline: as §1

SMILES	area under concentration-response curve (CU-ACC1)	area under concentration-response curve (CU-ACC2)	area under concentration-response curve (NCI-H295R)
O=C(Nc1cccnc1)c1cc(-c2ccnc(F)c2)ccc1OCc1ccccc1	514	615	–
CCCCOc1nc(N)c2c(n1)N(Cc1cccc(CN3CCCC3)c1)CC(=O)N2	538	506	–
C=CC(=O)N[C@H]1CN(c2nc(Nc3cn(C)nc3OC)c3ncn(C)c3n2)C[C@@H]1F	401	422	–
Cn1cc(-c2ccncc2)c(-c2ccc(OCc3ccc4ccccc4n3)cc2)n1	495	597	–
Cc1ccccc1C(=O)c1ccc(Nc2ccc(Br)cc2N)cc1Cl	–	502	–
CC\1=C/C=C\C=[N]1[Pt](N)(Cl)Cl	–	450	–
NC1=NC(=O)N2CC12 (stereo not drawn)	–	592	–
CC(C)(N)C(=O)N[C@H](COCc1ccccc1)C(=O)N1CCC2(CC1)CN([S+](C)(=O)[O-])c1ccccc12	–	489	–
OC1=CC=C2\C3=C(CNCC3)/C(=O)OC2=C1C4OCCCO4	–	623	–
COC1=CC=CC(=C1N)\C2=C\C(=O)C3=C(O2)C=CC=C3	–	591	–
CN1CCCN=C1/C=C/c1cccs1	–	211	–
O=[S+]([O-])(c1cccc2c(I)cccc12)N1CCCNCC1	–	649	–
CC1=CC(=CC(=C1C\C2=N\CCN2)C)C(C)(C)C	–	595	–
O=C(O)c1ccc(-n2nc(-c3ccccc3O)nc2-c2ccccc2O)cc1	–	590	–
NC(=O)c1ccc(-c2nc(-c3ccc4c(c3)OCCO4)c(-c3ccccn3)[nH]2)cc1	–	366	–
CC#C[C@]1(O)CC[C@H]2[C@@H]/3CCC/4=C/C(=O)CCC4=C3[C@H](C[C@]12C)C5=CC=C(C=C5)N(C)C	–	546	–
O=C(Nc1nnc(-c2ccco2)o1)c1cc(-c2ccccc2)nc2ccccc12	–	576	–
COc1ccc(-n2nc(C(N)=O)c3c2C(=O)N(c2ccc(N4CCCCC4=O)cc2)CC3)cc1	–	374	–
N#Cc1cc(NC(=O)Nc2nnc(-c3ccncc3)s2)ccc1-c1cn[nH]c1	–	529	–
COCCCOc1ccnc(CS(=O)c2nc3ccccc3[n-]2)c1C.[Na+] (stereo not drawn)	–	564	–
C=CC(=O)Nc1ccc(F)c(-c2ncnc3[nH]cc(C(=O)OCC)c23)c1	–	489	–
c1cc(OCCN2CCCCC2)cc(-c2n[nH]c3ccc(-c4nc[nH]n4)cc23)c1	525	–	563

SMILES	area under concentration-response curve (CU-ACC1)	area under concentration-response curve (CU-ACC2)	area under concentration-response curve (NCI-H295R)
O=C(O)c1cc(/N=N/c2ccc(S(=O)(=O)Nc3ccccn3)cc2)ccc1O	505	–	522
CN(C)CCN1C(=O)c2cccc3cc(NC(N)=O)cc(c23)C1=O	521	–	542
CCOC(=O)C1=CCCCC1[S+](=O)([O-])Nc1ccc(F)cc1Cl (stereo not drawn)	517	–	573
CC#CC(=O)N1CCC[C@H]1c1nc(-c2ccc(C(=O)Nc3ccccn3)cc2)c2c(N)nccn12	474	–	509
CN1CC/C(CC1)=C3\c4ccccc4CCc2sccc23	–	659	–
CO[C@@H](C(=O)N1Cc2[nH]nc(NC(=O)c3ccc(N4CCN(C)CC4)cc3)c2C1)c1ccccc1	539	–	549
CC(=O)CC(C1=CC=CC=C1)C/2=C(O)/C3=CC=CC=C3OC2=O (stereo not drawn)	491	–	533
C/C(O)=C(\C#N)C(=O)Nc1cc(Br)ccc1Br	446	–	456
Nc1nc(F)nc2c1ncn2C1OC(COP(=O)(O)O)C(O)C1O (stereo not drawn)	–	619	–
CONC(=O)Nc1ccc(-c2sc3c(c2CN(C)C)c(=O)n(-c2ccc(OC)nn2)c(=O)n3Cc2c(F)cccc2F)cc1	354	–	458
CO[C@H]1C[C@@H]2CC[C@@H](C)[C@@](O)(O2)C(=O)C(=O)N2CCCC[C@H]2C(=O)O[C@H]([C@H](C)C[C@@H]2CC[C@@H](OP(C)(C)=O)[C@H](OC)C2)CC(=O)[C@H](C)/C=C(\C)[C@@H](O)[C@@H](OC)C(=O)[C@H](C)C[C@H](C)/C=C/C=C/C=C/1C	–	536	–
COC1=C(OC)C=C2C(=C1)C(=O)N(CCCN3CCOCC3)\C4=C2\C(=O)C5=C4C=C6OCOC6=C5	400	–	463
CCNC(=O)Nc1ncc(-c2cc(-c3c(C)cc(OC)cc3C)nc(-c3cnccn3)n2)s1	482	–	520
CN(C)C1=C(Br)C=C(C=C1)C\2NC3=C(\C4=C2C(=O)CC(C)(C)C4)C5=CC=CC=C5C=C3 (stereo not drawn)	506	–	515
O=[S+]([O-])(NCCNC/C=C/c1ccc(Br)cc1)c1cccc2cnccc12	–	595	–
Cn1cc(-c2cnn3c(N)c(Br)c(C4CCCNC4)nc23)cn1 (stereo not drawn)	516	–	557
CN1C(=O)C[C@H](C(=O)N[C@@H](Cc2cnc[nH]2)C(=O)N2CCC[C@H]2C(N)=O)NC1=O	537	–	589
CNC(=O)C1=CC=C(C)C(=C1)N2C(=C/C(=C(/Br)C2=O)OCC3=C(F)C=C(F)C=C3)\C	–	547	–
Cc1c(CCOc2ccc(C(=O)O)cc2)c2cc(Cl)ccc2n1C(c1ccccc1)c1ccccc1	536	–	600
NC\1=N\C(=O)N(\C=C1F)[C@H]2C[C@H](O)[C@@H](CO)O2	334	–	416
CC1(C)CN(C(=O)c2ccc(-c3cccc4nc(NC(=O)C5CC5)nn34)cc2)C1	345	–	381
COC1=CC=C(C=C1)C2CC(=N/N2C3=CC=C(C=C3)[S+](N)([O-])=O)\C4=CC=CC=C4 (stereo not drawn)	–	648	–

SMILES	area under concentration-response curve (CU-ACC1)	area under concentration-response curve (CU-ACC2)	area under concentration-response curve (NCI-H295R)
COc1ccc2nc3[nH]nc(C)c3c(NCCOCCO)c2c1	545	–	574
OCCN1CCN(CCCN2c3ccccc3Sc3ccc(C(F)(F)F)cc32)CC1	432	–	279
COC(=O)C[C@](O)(CCCC(C)(C)O)C(=O)O[C@@H]1C(OC)=CC23CCCN2CCc2cc4c(cc2[C@H]13)OCO4 (stereo partly drawn)	149	–	252
CC(C)CC(N(C)C)C1(c2ccc(Cl)cc2)CCC1 (stereo not drawn)	291	–	349
COc1cc2ncnc(Oc3cccc(NC(=O)Nc4cc(C(C)(C)C(F)(F)F)on4)c3)c2cc1OC	446	–	467
O=C(O)CC/C=C\CC[C@@H]1[C@@H](N2CCCCC2)[C@@H](O)C[C@@H]1OCc1ccc(-c2ccccc2)cc1	389	–	424
CC(=O)N[C@H]1CSSC[C@@H](C(N)=O)NC(=O)[C@H](C(C)C)NC(=O)[C@H](C)NC(=O)[C@H](Cc2cnc[nH]2)NC1=O	501	–	551
COC(=O)N1CC2(CC2)C[C@H](C(=O)NO)[C@H]1C(=O)N1CCN(c2ccccc2)CC1	412	–	470
CC[C@@H](C)[C@H](NC(=O)[C@H](CC1CCCCC1)NC(=O)c1ccno1)C(=O)N1CCC2(CCc3ccccc32)CC1	–	118	–
Cc1nc(N)sc1-c1ccnc(Nc2ccc(N3CCOCC3)cc2)n1	400	–	414
O=C(Nc1cnccc1Cl)N1CCN(Cc2ccc3c(c2)OC(F)(F)O3)CC1	330	–	414
Cc1ccc(-c2ccc3c(ccc4sc5c(c43)NC[C@@H](C)NC5=O)n2)cn1	473	–	504
Cc1ccc(Nc2cc(-c3cccc(N4C(=O)c5ccccc5C4=O)c3)ncn2)cc1N[S+](C)(=O)[O-]	462	–	490
CCn1c(C(=O)N(C2CC2)C2CC2)cc2c3c(ncn3C)c(Nc3cc(C)n(C)n3)nc21	422	–	540
CCC(C)(C)C(=O)O[C@H]1C[C@@H](C)\C=C2\C=C/[C@H](C)[C@H](CC[C@@H]3C[C@@H](O)CC(=O)O3)[C@@H]12	399	–	565
CCCN1CCN(c2ccc(C(=O)NC3(C(=O)NCC#N)CCCCC3)cc2)CC1	375	–	299
CCCC[S+](=N)([O-])CCC(N)C(=O)O (stereo not drawn)	472	–	533
Cn1cc(-c2ccc3c(c2)CCN3C(=O)Cc2cccc(C(F)(F)F)c2)c2c(N)ncnc21	523	–	577
Nc1nc2cc(-c3ccc4ncc(C(=O)N5CCOCC5)n4c3)ccc2o1	514	–	478
C=C1C(=O)OC2/C=C(/C)CC/C=C(/C)CCC12 (stereo not drawn)	–	598	–
